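Cultured in 96-well plates, cells were exposed to test compound for 48 hours across five concentrations. TGI denotes the concentration required for complete inhibition of growth.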
What was measured:
Assay in all cases: NCI tumour cell line growth inhibition, 48 h
A498 renal = system: A498 renal
A549 NSCLC = system: A549 NSCLC
CAKI-1 renal = system: CAKI-1 renal
CCRF-CEM leukemia = system: CCRF-CEM leukemia
COLO 205 colon = system: COLO 205 colon
DLD-1 colon = system: DLD-1 colon
DMS 273 small cell lung = system: DMS 273 small cell lung
EKVX NSCLC = system: EKVX NSCLC
HCC-2998 colon = system: HCC-2998 colon
HCT-116 colon = system: HCT-116 colon
HCT-15 colon = system: HCT-15 colon
HL-60(TB) leukemia = system: HL-60(TB) leukemia
HOP-18 NSCLC = system: HOP-18 NSCLC
HOP-62 NSCLC = system: HOP-62 NSCLC
HOP-92 NSCLC = system: HOP-92 NSCLC
HT29 colon = system: HT29 colon
IGROV1 ovarian = system: IGROV1 ovarian
K-562 leukemia = system: K-562 leukemia
KM12 colon = system: KM12 colon
KM20L2 colon = system: KM20L2 colon
LOX IMVI melanoma = system: LOX IMVI melanoma
M19-MEL melanoma = system: M19-MEL melanoma
MALME-3M melanoma = system: MALME-3M melanoma
MCF7 breast = system: MCF7 breast
MOLT-4 leukemia = system: MOLT-4 leukemia
NCI-H226 lung = system: NCI-H226 lung
NCI-H23 lung = system: NCI-H23 lung
NCI-H460 lung = system: NCI-H460 lung
NCI-H522 lung = system: NCI-H522 lung
NCI/ADR-RES ovarian = system: NCI/ADR-RES ovarian
OVCAR-3 ovarian = system: OVCAR-3 ovarian
OVCAR-4 ovarian = system: OVCAR-4 ovarian
OVCAR-5 ovarian = system: OVCAR-5 ovarian
OVCAR-8 ovarian = system: OVCAR-8 ovarian
P388 leukemia = system: P388 leukemia
P388/ADR leukemia = system: P388/ADR leukemia
RPMI-8226 leukemia = system: RPMI-8226 leukemia
RXF 393 renal = system: RXF 393 renal
SF-268 CNS = system: SF-268 CNS
SF-295 CNS = system: SF-295 CNS
SF-539 CNS = system: SF-539 CNS
SK-MEL-2 melanoma = system: SK-MEL-2 melanoma
SK-MEL-28 melanoma = system: SK-MEL-28 melanoma
SK-MEL-5 melanoma = system: SK-MEL-5 melanoma
SK-OV-3 ovarian = system: SK-OV-3 ovarian
SN12C renal = system: SN12C renal
SN12K1 renal = system: SN12K1 renal
SNB-19 CNS = system: SNB-19 CNS
SNB-75 CNS = system: SNB-75 CNS
SNB-78 CNS = system: SNB-78 CNS
SW-620 colon = system: SW-620 colon
U251 CNS = system: U251 CNS
UACC-257 melanoma = system: UACC-257 melanoma
UACC-62 melanoma = system: UACC-62 melanoma
UO-31 renal = system: UO-31 renal
XF 498 CNS = system: XF 498 CNS
786-0 renal = system: 786-0 renal
ACHN renal = system: ACHN renal
DMS 114 small cell lung = system: DMS 114 small cell lung
LXFL 529 NSCLC = system: LXFL 529 NSCLC
M14 melanoma = system: M14 melanoma
RXF-631 renal = system: RXF-631 renal
SR leukemia = system: SR leukemia
TK-10 renal = system: TK-10 renal

`COc1cc2c(cc1Oc1ccc(OC)c3c1CC1c4c(cc(OC)c(OC)c4-3)CCN1C)CC1c3c(cc(OC)c(OC)c3-2)CCN1C` (stereo not given) showed a TGI (A498 renal) of 12.6 µM, a TGI (A549 NSCLC) of 25.9 µM and a TGI (CAKI-1 renal) of 8.06 µM. It also gave a TGI (CCRF-CEM leukemia) of 10.2 µM, a TGI (COLO 205 colon) of 2.95 µM and a TGI (DLD-1 colon) of 9.17 µM. The TGI (DMS 273 small cell lung) was 7.06 µM, the TGI (EKVX NSCLC) was 10.8 µM and the TGI (HCC-2998 colon) was 5.89 µM. It also gave a TGI (HCT-116 colon) of 4.49 µM, a TGI (HCT-15 colon) of 6.93 µM and a TGI (HL-60(TB) leukemia) of 2.72 µM. For the same molecule, the TGI (HOP-18 NSCLC) was 23.8 µM, the TGI (HOP-62 NSCLC) was 32.5 µM and the TGI (HOP-92 NSCLC) was 12.4 µM. It also gave a TGI (HT29 colon) of 2.94 µM, a TGI (IGROV1 ovarian) of 18.7 µM and a TGI (K-562 leukemia) of 3.92 µM. It also gave a TGI (KM12 colon) of 9.33 µM, a TGI (KM20L2 colon) of 3.59 µM and a TGI (LOX IMVI melanoma) of 2.48 µM. The TGI (M19-MEL melanoma) was 3.37 µM, the TGI (MALME-3M melanoma) was 3.38 µM and the TGI (MCF7 breast) was 8.43 µM. The TGI (MOLT-4 leukemia) was 4.41 µM, the TGI (NCI-H226 lung) was 5.01 µM and the TGI (NCI-H23 lung) was 27.4 µM. It also gave a TGI (NCI-H460 lung) of 3.88 µM, a TGI (NCI-H522 lung) of 4.66 µM and a TGI (NCI/ADR-RES ovarian) of 18.3 µM. The TGI (OVCAR-3 ovarian) was 14.9 µM, the TGI (OVCAR-4 ovarian) was 10.4 µM and the TGI (OVCAR-5 ovarian) was 12.8 µM. For the same molecule, the TGI (OVCAR-8 ovarian) was 16.3 µM, the TGI (P388 leukemia) was 4.02 µM and the TGI (P388/ADR leukemia) was 5.71 µM. The TGI (RPMI-8226 leukemia) was 3.97 µM, the TGI (RXF 393 renal) was 3.81 µM and the TGI (SF-268 CNS) was 14.8 µM. The TGI (SF-295 CNS) was 6.11 µM, the TGI (SF-539 CNS) was 3.39 µM and the TGI (SK-MEL-2 melanoma) was 3.79 µM. It also gave a TGI (SK-MEL-28 melanoma) of 3.44 µM, a TGI (SK-MEL-5 melanoma) of 2.92 µM and a TGI (SK-OV-3 ovarian) of 31.9 µM. The TGI (SN12C renal) was 19.3 µM, the TGI (SN12K1 renal) was 2.54 µM and the TGI (SNB-19 CNS) was 14.5 µM. The TGI (SNB-75 CNS) was 10.1 µM, the TGI (SNB-78 CNS) was 20.2 µM and the TGI (SW-620 colon) was 5.73 µM. It also gave a TGI (U251 CNS) of 4.19 µM, a TGI (UACC-257 melanoma) of 3.21 µM and a TGI (UACC-62 melanoma) of 3.65 µM. The TGI (UO-31 renal) was 17.7 µM and the TGI (XF 498 CNS) was 4.29 µM.

For `Cc1ccccc1-c1c(N)nc(N)nc1C(=O)Nc1nccs1`, the TGI (786-0 renal) was greater than 100 µM, the TGI (A498 renal) was greater than 100 µM and the TGI (A549 NSCLC) was greater than 100 µM. It also gave a TGI (ACHN renal) greater than 100 µM, a TGI (CAKI-1 renal) greater than 100 µM and a TGI (CCRF-CEM leukemia) greater than 100 µM. It also gave a TGI (COLO 205 colon) greater than 100 µM, a TGI (DLD-1 colon) greater than 100 µM and a TGI (DMS 114 small cell lung) greater than 100 µM. The TGI (DMS 273 small cell lung) was greater than 100 µM, the TGI (EKVX NSCLC) was greater than 100 µM and the TGI (HCC-2998 colon) was greater than 100 µM. For the same molecule, the TGI (HCT-116 colon) was greater than 100 µM, the TGI (HCT-15 colon) was greater than 100 µM and the TGI (HL-60(TB) leukemia) was greater than 100 µM. It also gave a TGI (HOP-18 NSCLC) greater than 100 µM, a TGI (HOP-62 NSCLC) greater than 100 µM and a TGI (HOP-92 NSCLC) greater than 100 µM. For the same molecule, the TGI (HT29 colon) was greater than 100 µM, the TGI (IGROV1 ovarian) was greater than 100 µM and the TGI (K-562 leukemia) was greater than 100 µM. For the same molecule, the TGI (KM12 colon) was greater than 100 µM, the TGI (KM20L2 colon) was greater than 100 µM and the TGI (LOX IMVI melanoma) was greater than 100 µM. The TGI (LXFL 529 NSCLC) was greater than 100 µM, the TGI (M14 melanoma) was greater than 100 µM and the TGI (M19-MEL melanoma) was greater than 100 µM. It also gave a TGI (MALME-3M melanoma) greater than 100 µM, a TGI (MOLT-4 leukemia) greater than 100 µM and a TGI (NCI-H226 lung) greater than 100 µM. For the same molecule, the TGI (NCI-H23 lung) was greater than 100 µM, the TGI (NCI-H460 lung) was greater than 100 µM and the TGI (NCI-H522 lung) was greater than 100 µM. For the same molecule, the TGI (OVCAR-3 ovarian) was greater than 100 µM, the TGI (OVCAR-4 ovarian) was greater than 100 µM and the TGI (OVCAR-5 ovarian) was greater than 100 µM. It also gave a TGI (OVCAR-8 ovarian) greater than 100 µM, a TGI (RPMI-8226 leukemia) greater than 100 µM and a TGI (RXF 393 renal) greater than 100 µM. It also gave a TGI (RXF-631 renal) greater than 100 µM, a TGI (SF-268 CNS) greater than 100 µM and a TGI (SF-295 CNS) greater than 100 µM. It also gave a TGI (SF-539 CNS) greater than 100 µM, a TGI (SK-MEL-2 melanoma) greater than 100 µM and a TGI (SK-MEL-28 melanoma) greater than 100 µM. The TGI (SK-MEL-5 melanoma) was greater than 100 µM, the TGI (SK-OV-3 ovarian) was greater than 100 µM and the TGI (SN12C renal) was greater than 100 µM. For the same molecule, the TGI (SNB-19 CNS) was greater than 100 µM, the TGI (SNB-75 CNS) was greater than 100 µM and the TGI (SNB-78 CNS) was greater than 100 µM. For the same molecule, the TGI (SR leukemia) was greater than 100 µM, the TGI (SW-620 colon) was greater than 100 µM and the TGI (TK-10 renal) was greater than 100 µM. The TGI (U251 CNS) was greater than 100 µM, the TGI (UACC-257 melanoma) was greater than 100 µM and the TGI (UACC-62 melanoma) was greater than 100 µM. For the same molecule, the TGI (UO-31 renal) was greater than 100 µM and the TGI (XF 498 CNS) was greater than 100 µM.
